“Also recorded” adds a separate entry of the source.
Key:
[1] = tested on: acetylated tubulin; experiment: Measurement of acetylated tubulin in spleen after oral administration (Western blotting); type: in vivo; details: BALE/c mice, female, 30 mg/kg orally
Procedure: Compound A (compound of Example 36) and compound B (compound of Example 37) were each orally administered to BALE/c mice (female, Charles River Japan, 8-weeks old when used) at a dose of 30 mg/kg. Compound A and compound B were each suspended in 0.5% methyl cellulose solution, and the suspensions were each orally administered at a dose of 10 mL/kg. For control group, 0.5% methyl cellulose solution was administered. After administration, a part (about 30 mg) of the spleen was recovered into tube containing beads (Lysing Matrix I, Cat. 6918-100, MP Biomedicals), and cryopreserved at −80° C. until used.
0.5 mL RIPA buffer containing protease inhibitor (Cat. 25955-11, Nacalai tesque) was added to the spleen placed in Lysing Matrix I tube, and the spleen was crushed over 20 sec by FastPrep-24. The sample tube was centrifuged (15,000 rpm, 4° C.,) for 5 min, and the supernatant was transferred to another tube. […] The protein amount of the sample was measured using BCA protein assay kit (Cat. 23227, Pierce). […]
The membrane was immersed in blocking reagent (Cat. NYPBR01, TOYOBO) at room temperature for 1 hr, washed, and reacted with primary antibody overnight at 4° C. After washed, the membrane was reacted with secondary antibody at room temperature for 1 hr, and immersed in ECL prime detecting solution (Cat. RPN2232, GE), and the chemiluminescence was detected by luminoimage analyzer LAS3000. […]

[2] = target: T1, HDAC1 enzyme (Homo sapiens, UniProt Q13547); experiment: HDAC1 enzyme inhibitory assay (HDAC-Glo I/II Assay kit); type: biochemical; details: 1 μM test compound; for inhibition at 1 µM: read-out: HDAC1 inhibitory rate (%) (1 μM)
T1 construct: prepared by transducing full length HDAC1 and HDAC6 genes into Sf-9 insect cells; GST; purchased SignalChem; host or cells: Sf-9 insect cells
Outline: (§1)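 Relative activity was calculated from luminescence, with wells lacking enzyme defined as 100% inhibition. The enzymes were full-length HDAC1 or HDAC6 from Sf-9 cells, preincubated with test compound for 60 min before a 20-min substrate-developer reaction at room temperature.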

[3] = target: T2, HDAC6 enzyme (Homo sapiens, UniProt Q9UBN7); experiment: HDAC6 enzyme inhibitory assay (HDAC-Glo I/II Assay kit); type: biochemical; details: 1 μM test compound; for inhibition at 1 µM: read-out: HDAC6 inhibitory rate (%) (1 μM)
T2 construct: prepared by transducing full length HDAC1 and HDAC6 genes into Sf-9 insect cells; GST; purchased SignalChem; host or cells: Sf-9 insect cells
T2 sequence (Q9UBN7 1-1215): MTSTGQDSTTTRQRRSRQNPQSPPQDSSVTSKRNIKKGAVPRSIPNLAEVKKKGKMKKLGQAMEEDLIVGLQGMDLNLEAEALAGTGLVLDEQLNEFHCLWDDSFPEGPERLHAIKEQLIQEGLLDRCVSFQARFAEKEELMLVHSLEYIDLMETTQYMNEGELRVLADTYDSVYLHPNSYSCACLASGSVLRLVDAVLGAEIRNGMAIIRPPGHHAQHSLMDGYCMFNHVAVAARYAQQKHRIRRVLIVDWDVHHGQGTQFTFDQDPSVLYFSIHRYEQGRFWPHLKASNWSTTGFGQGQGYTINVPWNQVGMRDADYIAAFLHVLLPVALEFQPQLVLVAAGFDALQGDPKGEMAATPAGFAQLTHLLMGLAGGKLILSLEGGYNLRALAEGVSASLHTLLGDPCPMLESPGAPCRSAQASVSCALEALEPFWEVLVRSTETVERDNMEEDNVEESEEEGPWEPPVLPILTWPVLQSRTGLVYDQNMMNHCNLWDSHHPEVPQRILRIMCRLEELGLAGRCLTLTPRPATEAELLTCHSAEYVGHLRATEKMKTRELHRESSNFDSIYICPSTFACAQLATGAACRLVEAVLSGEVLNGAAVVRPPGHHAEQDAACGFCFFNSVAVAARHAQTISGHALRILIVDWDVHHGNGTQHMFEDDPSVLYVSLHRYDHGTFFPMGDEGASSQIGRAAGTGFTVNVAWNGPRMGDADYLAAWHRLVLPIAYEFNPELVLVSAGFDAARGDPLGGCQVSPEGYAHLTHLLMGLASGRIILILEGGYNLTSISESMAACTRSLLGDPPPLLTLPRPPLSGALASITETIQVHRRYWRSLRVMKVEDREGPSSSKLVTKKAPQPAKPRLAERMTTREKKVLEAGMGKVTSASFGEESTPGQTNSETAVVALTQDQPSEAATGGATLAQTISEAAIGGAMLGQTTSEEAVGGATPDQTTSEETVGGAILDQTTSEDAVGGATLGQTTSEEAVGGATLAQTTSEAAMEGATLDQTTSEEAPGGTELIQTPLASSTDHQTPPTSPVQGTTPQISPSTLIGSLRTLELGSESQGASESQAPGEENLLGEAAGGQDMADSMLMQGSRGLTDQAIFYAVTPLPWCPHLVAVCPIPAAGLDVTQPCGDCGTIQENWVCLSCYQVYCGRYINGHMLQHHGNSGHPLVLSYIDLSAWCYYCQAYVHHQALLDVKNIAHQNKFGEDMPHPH
Outline: as §1

T1 sequence (Q13547 whole entry): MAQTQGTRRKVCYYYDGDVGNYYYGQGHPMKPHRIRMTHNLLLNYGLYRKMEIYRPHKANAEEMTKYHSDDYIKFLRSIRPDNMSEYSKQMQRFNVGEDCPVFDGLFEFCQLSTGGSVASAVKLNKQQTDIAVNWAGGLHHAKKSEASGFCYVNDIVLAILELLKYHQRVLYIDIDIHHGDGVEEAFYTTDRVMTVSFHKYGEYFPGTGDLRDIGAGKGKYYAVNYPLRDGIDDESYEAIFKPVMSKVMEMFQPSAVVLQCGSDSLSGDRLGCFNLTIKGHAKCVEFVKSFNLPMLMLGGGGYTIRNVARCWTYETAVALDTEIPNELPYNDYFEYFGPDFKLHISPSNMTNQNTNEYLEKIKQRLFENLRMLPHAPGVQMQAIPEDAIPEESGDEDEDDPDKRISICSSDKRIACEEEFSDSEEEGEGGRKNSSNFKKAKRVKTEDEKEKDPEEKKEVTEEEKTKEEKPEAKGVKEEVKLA

| SMILES | acetylation of tubulin in spleen (protein expression level of acetylated tubulin, fold increase relative to 0.5% methyl cellulose solution administration group) [1] | inhibition at 1 µM [2] | inhibition at 1 µM [3] | HDAC1 inhibitory rate (%) (1 μM) [2] | HDAC6 inhibitory rate (%) (1 μM) ([3]; 1 µM) |
| --- | --- | --- | --- | --- | --- |
| O=C(NC[C@H]1COCCN1C(=O)c1ccccc1)c1ccc(-c2noc(C(F)(F)F)n2)cc1 [compound A, N-(((3S)-4-benzoylmorpholin-3-yl)methyl)-4-(5-(trifluoromethyl)-1,2,4-oxadiazol-3-yl)benzamide] | increase in acetylated tubulin; also recorded: increased most acetylation of tubulin in spleen 8 hr after administration | – | – | – | – |
| O=C(NC[C@H]1COCCN1C(=O)c1cc(Cl)cc(Cl)c1)c1ccc(-c2noc(C(F)(F)F)n2)cc1 [compound B, N-(((3S)-4-(3,5-dichlorobenzoyl)morpholin-3-yl)methyl)-4-(5-(trifluoromethyl)-1,2,4-oxadiazol-3-yl)benzamide] | increase in acetylated tubulin; also recorded: increased most acetylation of tubulin in spleen 8 hr after administration | – | – | – | – |
| O=C(NC[C@H]1COCCN1C(=O)c1cccc(-c2ccccc2)c1)c1ccc(-c2noc(C(F)(F)F)n2)s1 [Example 262, N-(((3S)-4-(biphenyl-3-ylcarbonyl)morpholin-3-yl)methyl)-5-(5-(trifluoromethyl)-1,2,4-oxadiazol-3-yl)thiophene-2-carboxamide] | – | 16% | 94% | – | – |
| O=C(NC[C@H]1COCCN1C(=O)c1cc(Cl)cc(Cl)c1)c1ccc(-c2noc(C(F)(F)F)n2)cn1 [Example 183, N-(((3S)-4-(3,5-dichlorobenzoyl)morpholin-3-yl)methyl)-5-(5-(trifluoromethyl)-1,2,4-oxadiazol-3-yl)pyridine-2-carboxamide] | – | 57% | 97% | – | – |
| O=C(NC[C@H]1COCCN1C(=O)N1C2CCC1COC2)c1ccc(-c2noc(C(F)(F)F)n2)cc1 [Example 109, N-(((3S)-4-(3-oxa-8-azabicyclo[3.2.1]oct-8-ylcarbonyl)morpholin-3-yl)methyl)-4-(5-(trifluoromethyl)-1,2,4-oxadiazol-3-yl)benzamide] | – | 10% | 99% | – | – |
| O=C(NC[C@H]1COCCN1C(=O)N1CCC(CCO)C1)c1ccc(-c2noc(C(F)(F)F)n2)cc1 (stereo partly drawn) [Example 301, N-(((3S)-4-((3-(2-hydroxyethyl)pyrrolidin-1-yl)carbonyl)morpholin-3-yl)methyl)-4-(5-(trifluoromethyl)-1,2,4-oxadiazol-3-yl)benzamide] | – | – | – | 3% | 92% |
| O=C(NCC1COCCN1C(=O)N1CCCC1)c1ccc(-c2noc(C(F)(F)F)n2)cc1 (stereo in doubt) [Example 100, N-(((3S)-4-(pyrrolidin-1-ylcarbonyl)morpholin-3-yl)methyl)-4-(5-(trifluoromethyl)-1,2,4-oxadiazol-3-yl)benzamide] | – | 6% | 97% | – | – |
| O=C(NC[C@@H]1COCCN1C(=O)c1cc2ccccc2o1)c1ccc(-c2noc(C(F)(F)F)n2)cc1 [Example 125, N-(((3R)-4-(1-benzofuran-2-ylcarbonyl)morpholin-3-yl)methyl)-4-(5-(trifluoromethyl)-1,2,4-oxadiazol-3-yl)benzamide] | – | 19% | 100% | – | – |
| O=C(NCC1COCCN1C(=O)c1ccccc1)c1ccc(-c2noc(C(F)(F)F)n2)s1 (stereo not shown) [Example 210, N-((4-benzoylmorpholin-3-yl)methyl)-5-(5-(trifluoromethyl)-1,2,4-oxadiazol-3-yl)thiophene-2-carboxamide] | – | 23% | 96% | – | – |
| O=C(NCC1COCCN1C(=O)c1cccc(F)c1)c1ccc(-c2noc(C(F)(F)F)n2)cc1 (stereo in doubt) [Example 113, N-(((3R)-4-(3-fluorobenzoyl)morpholin-3-yl)methyl)-4-(5-(trifluoromethyl)-1,2,4-oxadiazol-3-yl)benzamide] | – | – | 97% | 17% | – |
| O=C(NCC1CCCCN1C(=O)c1ccccc1)c1ccc(-c2noc(C(F)(F)F)n2)cc1 (stereo not shown) [Example 163, N-((1-benzoylpiperidin-2-yl)methyl)-4-(5-(trifluoromethyl)-1,2,4-oxadiazol-3-yl)benzamide] | – | 25% | 97% | – | – |
| N#Cc1cc(F)cc(C(=O)N2CCOC[C@@H]2CNC(=O)c2ccc(-c3noc(C(F)(F)F)n3)cc2)c1 [Example 40, N-(((3S)-4-(3-cyano-5-fluorobenzoyl)morpholin-3-yl)methyl)-4-(5-(trifluoromethyl)-1,2,4-oxadiazol-3-yl)benzamide] | – | 17% | 99% | – | – |

Source: patent US10081624B2, “Heterocyclic compound” (Takeda Pharmaceutical Company Limited, priority 2014, dated 2018)
